# Source: patent US20240252677A1, “ONE-COMPONENT DELIVERY SYSTEM FOR NUCLEIC ACIDS” (The Trustees of the University of Pennsylvania, priority 2021, published 2024)
# Experiments:
# [1] = pKa measurements of individual IAJD molecules by titration; type: physicochemical; conditions: ethanol saturated with NaCl, titrated with 0.1 M aqueous HCl, titration
# How it was run: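 pKa derived by half-equivalence-point analysis of a pH-meter titration curve: 0.1 M HCl added in 7.5 μL increments to a 1.5 mg/mL solution of each molecule in ethanol saturated with NaCl.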
# [2] = tested on: BALB/c mice; experiment: In vivo mRNA delivery in mice with DNPs, whole-body bioluminescence imaging (IVIS); conditions: for Total flux (p/s) / Organs with luminescence: mice; for Total flux (p/s): IVIS imaging 4 h after Luc-mRNA-IAJD injection
# Experimental: (§1) The exposure time was 1 min.
# Luminescence characterization for in vivo transfection experiments employed bioluminescence imaging with an IVIS Spectrum imaging system (PerkinElmer, Waltham, MA). Mice were anesthetized with 3% of isoflurane (Piramal Healthcare Limited) and intraperitoneally (i.p.) administered with D-luciferin (Regis Technologies) at a dose of 150 mg/kg of body weight. Ten minutes post administration of D-luciferin, mice were placed on the imaging platform while being maintained on isoflurane via a nose cone and imaged using an exposure time of 60 seconds. […] To quantify luminescent flux, an oval ROI was placed over each organ of interest and analyzed.
# (§2) Tissue luminescence signal was measured on the IVIS imaging system using an exposure time of 60 seconds using medium binning (binning=8) to ensure that the signal obtained was within operative detection range. […] Bioluminescence imaging was performed as described above.
# Luminescence Characterization for In Vivo Transfection Experiments: bioluminescence imaging was performed with an IVIS Spectrum imaging system (PerkinElmer, Waltham, MA).
# [3] = tested on: spleen; experiment: In vivo mRNA delivery, IVIS imaging of organs: spleen; set-up: species or system mice; key to Organs with luminescence: spleen: strong: Strong meant the luminescence intensity in that organ was relatively high, compared to other organs; weak: Weak meant the luminescence intensity in that organ was relatively low, compared to other organs; conditions: for Organs with luminescence: spleen: Table 17, mice, IVIS, 4-6 h after injection, intensity relative to other organs
# Experimental: as §1, §2
# (§3) Tissue luminescence signal was measured on the IVIS imaging system using a certain exposure time (60, 30 or 15 seconds) and medium binning (binning=8) to ensure that the signal obtained was within operative detection range.
# [4] = tested on: HEK293T cells; experiment: In vitro Luc-mRNA transfection, luciferase luminescence expression in HEK293T cells; type: cell-based, human; set-up: unit not given here
# How it was run: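 HEK293T cells were transfected with nucleoside-modified firefly luciferase mRNA at 125 ng/well delivered in the test particles. TransIT and MC3-based LNPs at equal mRNA dose served as comparators. After 24 h (18-20 h in some runs) at 37° C the cells were lysed, and luciferase luminescence was read on a luminometer, in triplicate.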
# [5] = tested on: lung; experiment: In vivo mRNA delivery, IVIS imaging of organs: lung; set-up: species or system mice; key to Organs with luminescence: lung: strong: Strong meant the luminescence intensity in that organ was relatively high, compared to other organs; weak: Weak meant the luminescence intensity in that organ was relatively low, compared to other organs; conditions: Table 17; mice, IVIS, 4-6 h after injection; intensity relative to other organs
# Experimental: as §1, §2, §3
# [6] = Table 16, HEK 293T cells, 125 ng/well, n=3
# [7] = Table 20, nonsymmetric IAJDs and MC3-Luc-mRNA
# [8] = Table 15, individual IAJD molecule
# [9] = HEK293T cells, Luc-mRNA 125 ng/well, n=3
Molecule,pKa ([1]; individual IAJD molecules),"In vivo activity (total flux, p/s) ([2]; Table 19, nonsymmetric IAJDs)",Organs with luminescence: spleen [3],"Luminescence [4, 6]",Organs with luminescence: lung [5],"In vivo activity (total flux, p/s) [2, 7]",also measured
"CCCCCCCCCCCCCCCOc1cc(COC(=O)CCCN2CCN(C)CC2)cc(OCCCCCCCCCCCCC)c1 [IAJD 145, 3-(pentadecyloxy)-5-(tridecyloxy)benzyl 4-(4-methylpiperazin-1-yl)butanoate]",6.28,9.25 × 10^6 p/s,spleen (strong),296,"Lung (strong),",–,–
"CCCCCCCCCCCCCCOc1cc(COC(=O)CCCN2CCN(CCO)CC2)cc(OCCCCCCCCCCCCC)c1 [IAJD 172, 3-(Tetradecyloxy)-5-(tridecyloxy)benzyl 4-(4-(2-hydroxyethyl)piperazin-1-yl)butanoate]",6.03,6.82 × 10^7 p/s,spleen (strong),"166,377","Lung (weak),",–,–
"CCCCCCCCCCCCCCCCCCOc1cc(COC(=O)CCCN2CCN(CCO)CC2)cc(OCCCCCCCCCCCCCCC)c1 [IAJD 154, 3-(Octadecyloxy)-5-(pentadecyloxy)benzyl 4-(4-(2-hydroxyethyl)piperazin-1-yl)butanoate]",6.48,2.39 × 10^7 p/s,spleen (strong),"17,871","Lung (weak),",2.39 × 10^7 p/s,–
"CCCCCCCCCCCCCCOc1cc(COC(=O)CCCN2CCN(CCO)CC2)cc(OCCCCCCCCCCC)c1 [IAJD 125, 3-(Tetradecyloxy)-5-(undecyloxy)benzyl 4-(4-(2-hydroxyethyl)piperazin-1-yl)butanoate]",6.64,2.15 × 10^8 p/s,spleen (strong),"119,405","Lung (weak),",2.15 × 10^8 p/s,–
CCCCCCCCCCCCCCCCCOc1cc(CNC(=O)c2cc(OCCOCCOCCOC(=O)CCCN3CCCCC3)c(OCCCOCOCCOCc3ccccc3)c(OCCOCCOCCOC(=O)CCCN3CCCCC3)c2)cc(OCCCCCCCCCCCCCCCCC)c1 [IAJD 159],7.4,–,–,"24,055",Lung (strong),–,"increase of activity, amide vs ester interconnecting group ([2]; transition from 158(11/17) (ester) to 159(11/17) (amide)): about 6 fold"
"CCCCCCCCCCCCCOc1cc(COC(=O)CCCN2CCN(CCO)CC2)cc(OCC(CC)CCCC)c1 (centres unmarked) [IAJD 162, 3-((2-Ethylhexyl)oxy)-5-(tridecyloxy)benzyl 4-(4-(2-hydroxyethyl)piperazin-1-yl)butanoate]",6.33,2.03 × 10^8 p/s,spleen (strong),"222,235","Lung (weak),",2.03 × 10^8 p/s,–
"CCCCCCCCCCCCCOc1cc(COC(=O)CCCN2CCN(C)CC2)cc(OCC(CC)CCCC)c1 (centres unmarked) [IAJD 161, 3-((2-Ethylhexyl)oxy)-5-(tridecyloxy)benzyl 4-(4-methylpiperazin-1-yl)butanoate]",6.38,8.48 × 10^7 p/s,spleen (strong),128,"Lung (weak),",–,–
"CCCCCCCCCCCCCOc1cc(COC(=O)CCCN2CCN(CCO)CC2)cc(OCCCCCCCCCCC)c1 [IAJD 117, 3-(Tridecyloxy)-5-(undecyloxy)benzyl 4-(4-(2-hydroxyethyl)piperazin-1-yl)butanoate]",6.49,8.64 × 10^6 p/s,spleen (strong),"516,522","Lung (weak),",–,–
"CCCCCCCCCCCCCCCCCCOc1cc(COC(=O)CCCN2CCN(C)CC2)cc(OCCCCCCCCCCCCC)c1 [IAJD 177, 3-(Octadecyloxy)-5-(tridecyloxy)benzyl 4-(4-methylpiperazin-1-yl)butanoate]",5.9,9.18 × 10^7 p/s,spleen (strong),"4,343","Lung (weak),",9.18 × 10^7 p/s,–
"CCCCCCCCCCCCOc1cc(COC(=O)CCCN2CCCCC2)cc(OCCCCCCCCCCCC)c1 [IAJD 65, 3,5-Bis(dodecyloxy)benzyl 4-(piperidin-1-yl)butanoate]",–,–,–,–,–,–,"pKa [1, 8]: 7.4; Total flux (p/s) ([2]; Table 13): 0 p/s; Total flux (p/s) ([2]; Table 14): 0 p/s; Luminescence [4, 9]: 18"
"CCCCCCCCCCCCCCCCCCOc1cc(COC(=O)CCCN2CCN(C)CC2)cc(OCCCCCCCCCCCCCCC)c1 [IAJD 153, 3-(Octadecyloxy)-5-(pentadecyloxy)benzyl 4-(4-methylpiperazin-1-yl)butanoate]",6.42,7.33 × 10^7 p/s,spleen (strong),"8,860","Lung (weak),",7.33 × 10^7 p/s,–
"CCCCCCCCCCCCCCCCOc1cc(COC(=O)CCCN2CCN(C)CC2)cc(OCCCCCCCCCCCCC)c1 [IAJD 173, 3-(Hexadecyloxy)-5-(tridecyloxy)benzyl 4-(4-methylpiperazin-1-yl)butanoate]",5.91,1.23 × 10^8 p/s,spleen (weak),"2,302","Lung (weak),",1.23 × 10^8 p/s,–
"CCCCCCCCCCCCCCCOc1cc(COC(=O)CCCN2CCN(CCO)CC2)cc(OCCCCCCCCCCCCC)c1 [IAJD 146, 3-(Pentadecyloxy)-5-(tridecyloxy)benzyl 4-(4-(2-hydroxyethyl)piperazin-1-yl)butanoate]",6.59,4.70 × 10^7 p/s,spleen (strong),"50,625","Lung (strong),",–,–
"CCCCCCCCCCCOc1cc(COC(=O)CCCN2CCN(CCO)CC2)cc(OCCCCCCCC)c1 [IAJD 113, 3-(Octyloxy)-5-(undecyloxy)benzyl 4-(4-(2-hydroxyethyl)piperazin-1-yl)butanoate]",6.52,1.70 × 10^7 p/s,Spleen (strong),"78,118",–,–,–
"3,5-Bis(dodecyloxy)benzyl 3-(4-methylpiperazin-1-yl)propanoate [IAJD 84]",–,–,–,–,–,–,"Organs with luminescence ([2]; 4 h from injection, CIAJD 4.0 mg/mL, CLuc-mRNA 0.1 mg/mL, acetate buffer pH 5.2): Lung, spleen; Luminescence ([4]; Acetate buffer 10 mM pH 4.0, CIAJD 4 mg/mL, CLuc-mRNA 0.05 mg/mL, HEK293T, 125 ng/well): 3,876; Luminescence ([4]; Acetate buffer 10 mM pH 5.2, CIAJD 4 mg/mL, CLuc-mRNA 0.10 mg/mL, HEK293T, 125 ng/well): 18,268; Luminescence ([4]; Citrate buffer 10 mM pH 3.0, CIAJD 4 mg/mL, CLuc-mRNA 0.05 mg/mL, HEK293T, 125 ng/well): 819"
"CCCCCCCCCCCCCCCCOc1cc(COC(=O)CCCN2CCN(CCO)CC2)cc(OCCCCCCCCCCC)c1 [IAJD 120, 3-(Hexadecyloxy)-5-(undecyloxy)benzyl 4-(4-(2-hydroxyethyl)piperazin-1-yl)butanoate]",6.37,2.48 × 10^7 p/s,Spleen (strong),"443,836",–,–,–
"CCCCCCCCCCCCOCC(COCCCCCCCCCCCC)(COCCCCCCCCCCCC)COC(=O)CCCN1CCN(C)CC1 [IAJD 82, 3-(Dodecyloxy)-2,2-bis((dodecyloxy)methyl)propyl 4-(4-methylpiperazin-1-yl)butanoate]",–,–,–,–,–,–,"pKa [1, 8]: 6.18; Organs with luminescence ([2]; Table 13, IVIS imaging 5 h after injection): spleen; Organs with luminescence: spleen (weak/strong) ([3]; Table 14, imaging 5 h after injection): Spleen (strong); Luminescence [4, 9]: 17"
"CCCCCCCCCCCCCCCCCOc1cc(COC(=O)CCCN2CCN(CCO)CC2)cc(OCCCCCCCCCCCCCCC)c1 [IAJD 152, 3-(Heptadecyloxy)-5-(pentadecyloxy)benzyl 4-(4-(2-hydroxyethyl)piperazin-1-yl)butanoate]",6.65,1.97 × 10^7 p/s,spleen (strong),"88,202",–,–,–
